Here are results for 4 molecules from patent EP4755885A1 (Shanghai Hansoh Biomedical Co., Ltd., priority 2023, dated 2025).

Structures are written as SMILES. Like-named read-outs stand apart in the source and are kept apart here.

Data set [1] is described as follows: Pharmacokinetic evaluation in Macaca fascicularis monkeys, oral administration. Format: in vivo. Conditions: cynomolgus monkey, p.o. 5 mg/kg, plasma; for MRT inf: read-out: MRT 0-∞. The procedure:
Macaca fascicularis monkeys were used as test animals to study the pharmacokinetic behavior of the compound of the present invention, administered orally at a dose of 5 mg/kg, in Macaca fascicularis monkeys (plasma).
Macaca fascicularis monkeys, 3 per group, male.
Preparation of drug for oral administration: 10%PEG400/10%PG/80% glycine buffer (100 mM glycine, 64 Mm NaOH, […]) buffer.
Single PK: The compound of the present invention was weighed into a 100 mL glass bottle, and the solution was added. The pH was first adjusted with 1 M NaOH until the compound dissolves to obtain a clear solution, and then the pH was readjusted to pH 9.0-9.5 with 1 M HCl. Sonication was performed for 10 min to obtain a colorless clear solution having a concentration of 1 mg/mL.
Three Macaca fascicularis monkeys, male, respectively administered p.o. after fasting overnight, at a dose of 5 mg/kg and in an administration volume of 5 mL/kg.
Blood collection: 0.3 mL of blood was collected from the forelimb vein of the Macaca fascicularis monkeys before administration and at 0.25, 0.5, 1, 2, 4, 6, 8, and 24 h after administration. The blood samples were placed in EDTA-K2 anticoagulant tubes and centrifuged at 6000 rpm at 4°C for 6 min to separate plasma, which was stored at -80°C. The Macaca fascicularis monkeys were fed 4 h after administration.
• 1) 40 µL of a plasma sample was added with 160 µL of acetonitrile for precipitation, and after mixing, the mixture was centrifuged at 3500 × g for 5 to 20 min. • 2) The supernatant solution after treatment was taken for LC/MS/MS analysis of the concentration of the test compound. The LC/MS/MS analysis instrument was AB Sciex API 4000 Qtrap.
• Liquid phase condition: Shimadzu LC-20AD pump • Chromatographic column: Agilent ZORBAX XDB-C18 (50×2.1 mm, 3.5 µm) Mobile phase: Solution A was 0.1% formic acid aqueous solution, and Solution B was acetonitrile • Flow rate: 0.4 mL/min • Elution time: 0-4.0 min, the eluent was as follows: […]

For data set [2], the target named is T1, human GLP-1 receptor (Homo sapiens, UniProt P43220).
T1 construct: expressed in transfected cells
T1 sequence (P43220 24-463): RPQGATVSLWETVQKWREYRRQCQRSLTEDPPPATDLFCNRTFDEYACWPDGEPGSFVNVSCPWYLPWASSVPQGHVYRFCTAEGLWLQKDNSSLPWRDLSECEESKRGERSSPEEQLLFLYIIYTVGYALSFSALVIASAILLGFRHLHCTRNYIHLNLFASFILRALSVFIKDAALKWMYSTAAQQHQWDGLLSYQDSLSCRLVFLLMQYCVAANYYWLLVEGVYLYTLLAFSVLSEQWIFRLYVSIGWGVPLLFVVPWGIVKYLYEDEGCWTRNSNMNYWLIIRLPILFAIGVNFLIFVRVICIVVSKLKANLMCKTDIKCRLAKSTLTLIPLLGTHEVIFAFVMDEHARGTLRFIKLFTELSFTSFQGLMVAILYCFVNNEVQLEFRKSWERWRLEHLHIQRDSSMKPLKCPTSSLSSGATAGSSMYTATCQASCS
The data set can be described thus: cAMP production in cell line stably transformed with human GLP1 receptor, 2 h co-incubation (HTRF). Format: cell-based. The note with it: CHO-K1/GLP-1R/CRE-luc cells, stimulation for 2 h. In outline: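 CHO-K1/GLP-1R/CRE-luc cells (human GLP-1R) incubated 2 h at 37 °C with compound (12-point 3-fold series) and 0.5 mM IBMX in DMEM/F12 with 0.1% casein. cAMP measured by HTRF (665/620 nm ratio); EC50 from four-parameter fit.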
In general terms: Changes in cAMP serve as a functional read-out for many G protein-coupled receptors.

Data set [3] addresses T1, human GLP-1 receptor. Kind of data set: cAMP production in cell line stably transformed with human GLP1 receptor, 30 min co-incubation (HTRF). In kind it is cell-based. The note with it: CHO-K1/GLP-1R/CRE-luc cells, stimulation for 0.5 h.

As for `[2H]C([2H])([2H])n1nc2c3c(c(-n4ccn(-c5c6c(nn5-c5cc(C)c(F)c(C)c5)CCN(C(=O)c5cc7cc([C@H]8CCOC(C)(C)C8)ccc7n5[C@@]5(c7noc(=O)[nH]7)C[C@@H]5C)[C@H]6C)c4=O)ccc31)OCCC2` [Example 282, 3-((1S,2S)-1-(5-((S)-2,2-dimethyltetrahydro-2H-pyran-4-yl)-2-((S)-2-(4-fluoro-3,5-dimethylphenyl)-4-methyl-3-(3-(2-(methyl-d3)-2,7,8,9-tetrahydrooxaheptano[4,3,2-cd]indazol-5-yl)-2-carbonyl-2,3-dihydro-1H-imidazol-1-yl)-4,5,6,7-tetrahydro-2H-pyrazolo[4,3-c]pyridine-5-carbonyl)-1H-indol-1-yl)-2-methylcyclopropyl)-1,2,4-oxadiazol-5(4H)-one], in data set [1], the AUC(0-inf) (in general, total exposure, with the tail of the curve extrapolated) came to 17000 ng·h/mL; the AUC(0-t) – broadly, the area under the concentration-time curve up to a stated or last time point – turned out to be 7560 ng·h/mL; the Cmax (as a rule, the peak of the concentration-time curve) came out at 570 ng/mL; the Tmax (usually the time from dosing to the highest level) came to 4 h. In addition, in data set [1], the half-life – broadly, the time needed for the level to fall by half in the phase considered – was 47.6 h and the MRT inf is 68.9 h. Also, the EC50 – broadly, the concentration at which the effect is half-maximal – on human GLP-1 receptor [2] (read-out: EC50) is 0.074 nM.
Regarding `C#C[C@H]1C[C@]1(c1noc(=O)[nH]1)n1c(C(=O)N2CCc3nn(-c4cc(C)c(F)c(C)c4)c(-n4ccn(-c5ccc6c(cnn6C6CC6)c5F)c4=O)c3[C@@H]2C)cc2cc([C@H]3CCOC(C)(C)C3)ccc21` [Example 143], in data set [1] (male), the AUC(0-inf) came out at 26200 ng·h/mL, the AUC(0-t) came out at 26000 ng·h/mL, the Cmax was determined as 4040 ng/mL and the time of peak concentration (Tmax) came out at 2.7 h. In data set [1] (male), the half-life is 3.2 h and the MRT inf amounted to 5.1 h. Further, the EC50 on human GLP-1 receptor [2] (read-out: EC50) is 0.013 nM.
For the molecule `Cc1cc(-n2nc3c(c2-n2ccn(-c4ccc5c(cnn5C5CC5)c4F)c2=O)[C@H](C)N(C(=O)c2cc4cc([C@H]5CCOC(C)(C)C5)ccc4n2[C@@]2(c4noc(=O)[nH]4)C[C@@H]2COC2CC2)CC3)cc(C)c1F` [Example 67], the EC50 came to 1.4 nM at human GLP-1 receptor [3] and 0.024 nM at human GLP-1 receptor [2].
As for `CC#C[C@H]1C[C@]1(c1noc(=O)[nH]1)n1c(C(=O)N2CCc3nn(-c4cc(C)c(F)c(C)c4)c(-n4ccn(-c5ccc6c(cnn6C6CC6)c5F)c4=O)c3[C@@H]2C)cc2cc([C@H]3CCOC(C)(C)C3)ccc21` [Example 144, 3-((1S,2R)-1-(2-((S)-3-(3-(1-cyclopropyl-4-fluoro-1H-indazole-5-yl)-2-carbonyl-2,3-dihydro-1H-imidazole-1-yl)-2-(4-fluoro-3,5-dimethylphenyl)-4-methyl-4,5,6,7-tetrahydro-2H-pyrazolo[4,3-c]pyridin-5-carbonyl)-5-((S)-2,2-dimethyltetrahydro-2H-pyrano-4-yl)-1H-indole-1-yl)-2-(propyl-1-alkynyl-1-yl)cyclopropyl)-1,2,4-oxadiazol-5(4H)-one], the EC50 at human GLP-1 receptor [3] (read-out: EC50) stood at 1 nM; on human GLP-1 receptor [2] (read-out: EC50), 0.05 nM.
